Test results reported in PMC5564600 (Oncotarget, 2017).

Legend:
Experiment in all cases: biochemical
Type in all cases: binding
[1] = target: T1, panel of 442 kinases (Homo sapiens, UniProt Q92772); conditions: CDKL2; for remaining activity at 1 µM: read-out: % of control at 1 µM
T1 construct: purchased Ambit Biosciences (scanMAXX KINOMEscan)
T1 sequence (Q92772 1-493): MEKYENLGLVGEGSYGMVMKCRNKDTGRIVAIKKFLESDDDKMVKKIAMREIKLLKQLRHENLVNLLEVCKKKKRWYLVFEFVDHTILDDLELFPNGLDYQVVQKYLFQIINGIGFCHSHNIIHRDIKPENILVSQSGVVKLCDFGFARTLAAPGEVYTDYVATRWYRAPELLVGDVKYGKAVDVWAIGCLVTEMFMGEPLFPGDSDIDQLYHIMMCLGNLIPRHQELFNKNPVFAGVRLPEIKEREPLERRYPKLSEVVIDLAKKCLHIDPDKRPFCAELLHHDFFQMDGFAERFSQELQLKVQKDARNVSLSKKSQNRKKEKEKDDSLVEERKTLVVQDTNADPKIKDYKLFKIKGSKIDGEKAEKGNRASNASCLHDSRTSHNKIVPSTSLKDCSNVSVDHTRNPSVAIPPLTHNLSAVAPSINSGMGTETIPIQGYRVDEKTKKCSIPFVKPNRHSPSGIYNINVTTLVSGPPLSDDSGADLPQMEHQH

[2] = target: T2, panel of 442 kinases (Homo sapiens, UniProt O00444); conditions: kinase PLK4; for remaining activity at 1 µM: read-out: PLK4 (% of control at 1 µM)
T2 construct: purchased Ambit Biosciences (scanMAXX KINOMEscan)
T2 sequence (O00444 1-970): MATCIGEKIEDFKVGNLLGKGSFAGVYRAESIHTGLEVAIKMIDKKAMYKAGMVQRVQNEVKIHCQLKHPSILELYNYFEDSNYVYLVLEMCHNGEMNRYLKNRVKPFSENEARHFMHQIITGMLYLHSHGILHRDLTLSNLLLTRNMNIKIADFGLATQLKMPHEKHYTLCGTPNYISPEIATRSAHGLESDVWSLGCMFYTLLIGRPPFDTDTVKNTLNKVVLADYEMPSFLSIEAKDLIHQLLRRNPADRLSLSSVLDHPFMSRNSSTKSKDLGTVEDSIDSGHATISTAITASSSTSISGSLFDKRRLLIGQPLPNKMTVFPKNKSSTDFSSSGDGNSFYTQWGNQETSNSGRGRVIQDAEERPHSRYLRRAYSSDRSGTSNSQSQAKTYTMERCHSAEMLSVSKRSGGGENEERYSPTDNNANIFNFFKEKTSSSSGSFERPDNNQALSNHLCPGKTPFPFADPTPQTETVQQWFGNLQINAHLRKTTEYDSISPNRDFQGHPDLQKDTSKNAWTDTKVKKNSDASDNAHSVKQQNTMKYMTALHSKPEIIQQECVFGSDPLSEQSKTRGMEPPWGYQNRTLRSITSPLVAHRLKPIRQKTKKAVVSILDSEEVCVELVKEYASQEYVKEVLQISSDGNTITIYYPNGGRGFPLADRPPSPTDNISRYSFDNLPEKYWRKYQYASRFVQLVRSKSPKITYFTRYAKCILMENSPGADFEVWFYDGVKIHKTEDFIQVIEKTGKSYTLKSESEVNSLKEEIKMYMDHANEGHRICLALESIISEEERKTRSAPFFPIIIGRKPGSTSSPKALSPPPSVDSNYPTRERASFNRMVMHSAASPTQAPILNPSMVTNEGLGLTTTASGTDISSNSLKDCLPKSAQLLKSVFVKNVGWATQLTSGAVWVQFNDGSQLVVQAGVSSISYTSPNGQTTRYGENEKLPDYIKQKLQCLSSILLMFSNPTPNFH

[3] = target: T3, panel of 442 kinases (Homo sapiens, UniProt P36894); conditions: BMPR1A; for remaining activity at 1 µM: read-out: % of control at 1 µM
T3 construct: purchased Ambit Biosciences (scanMAXX KINOMEscan)
T3 sequence (P36894 24-532): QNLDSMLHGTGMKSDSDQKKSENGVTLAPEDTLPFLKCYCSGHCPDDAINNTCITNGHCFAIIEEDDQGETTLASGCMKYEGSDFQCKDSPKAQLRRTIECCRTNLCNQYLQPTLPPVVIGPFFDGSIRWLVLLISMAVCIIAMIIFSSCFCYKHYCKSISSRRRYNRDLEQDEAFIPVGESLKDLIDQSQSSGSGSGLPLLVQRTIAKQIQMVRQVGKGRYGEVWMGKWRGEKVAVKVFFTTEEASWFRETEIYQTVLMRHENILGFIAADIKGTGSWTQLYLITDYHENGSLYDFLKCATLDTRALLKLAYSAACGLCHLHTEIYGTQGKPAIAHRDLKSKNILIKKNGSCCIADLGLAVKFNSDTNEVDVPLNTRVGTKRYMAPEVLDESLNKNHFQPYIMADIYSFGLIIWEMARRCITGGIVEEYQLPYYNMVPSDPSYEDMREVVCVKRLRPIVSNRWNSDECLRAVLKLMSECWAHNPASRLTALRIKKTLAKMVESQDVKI

[4] = target: T4, panel of 442 kinases (Homo sapiens, UniProt O96013); conditions: kinase PAK4; for remaining activity at 1 µM: read-out: % of control at 1 µM
T4 construct: purchased Ambit Biosciences (scanMAXX KINOMEscan)
T4 sequence (O96013 whole entry): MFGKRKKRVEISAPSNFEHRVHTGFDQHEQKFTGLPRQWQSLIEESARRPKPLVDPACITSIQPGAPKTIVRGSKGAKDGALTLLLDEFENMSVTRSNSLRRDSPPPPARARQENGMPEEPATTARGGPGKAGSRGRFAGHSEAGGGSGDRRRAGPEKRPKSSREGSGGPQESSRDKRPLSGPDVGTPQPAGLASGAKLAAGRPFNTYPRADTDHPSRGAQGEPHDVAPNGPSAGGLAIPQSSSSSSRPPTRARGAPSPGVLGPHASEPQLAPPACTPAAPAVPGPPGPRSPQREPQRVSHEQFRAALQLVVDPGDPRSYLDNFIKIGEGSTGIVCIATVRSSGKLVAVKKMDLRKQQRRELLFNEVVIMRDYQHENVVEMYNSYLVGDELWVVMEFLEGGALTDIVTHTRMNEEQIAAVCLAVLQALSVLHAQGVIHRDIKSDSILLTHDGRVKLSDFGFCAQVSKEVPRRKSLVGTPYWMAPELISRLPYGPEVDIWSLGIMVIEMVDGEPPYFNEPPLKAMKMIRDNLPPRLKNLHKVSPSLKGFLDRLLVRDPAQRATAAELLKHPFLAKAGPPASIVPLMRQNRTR

[5] = target: T5, panel of 442 kinases (Homo sapiens, UniProt O95382); conditions: ASK2; for remaining activity at 1 µM: read-out: % of control at 1 µM
T5 construct: purchased Ambit Biosciences (scanMAXX KINOMEscan)
T5 sequence (O95382 1-1288): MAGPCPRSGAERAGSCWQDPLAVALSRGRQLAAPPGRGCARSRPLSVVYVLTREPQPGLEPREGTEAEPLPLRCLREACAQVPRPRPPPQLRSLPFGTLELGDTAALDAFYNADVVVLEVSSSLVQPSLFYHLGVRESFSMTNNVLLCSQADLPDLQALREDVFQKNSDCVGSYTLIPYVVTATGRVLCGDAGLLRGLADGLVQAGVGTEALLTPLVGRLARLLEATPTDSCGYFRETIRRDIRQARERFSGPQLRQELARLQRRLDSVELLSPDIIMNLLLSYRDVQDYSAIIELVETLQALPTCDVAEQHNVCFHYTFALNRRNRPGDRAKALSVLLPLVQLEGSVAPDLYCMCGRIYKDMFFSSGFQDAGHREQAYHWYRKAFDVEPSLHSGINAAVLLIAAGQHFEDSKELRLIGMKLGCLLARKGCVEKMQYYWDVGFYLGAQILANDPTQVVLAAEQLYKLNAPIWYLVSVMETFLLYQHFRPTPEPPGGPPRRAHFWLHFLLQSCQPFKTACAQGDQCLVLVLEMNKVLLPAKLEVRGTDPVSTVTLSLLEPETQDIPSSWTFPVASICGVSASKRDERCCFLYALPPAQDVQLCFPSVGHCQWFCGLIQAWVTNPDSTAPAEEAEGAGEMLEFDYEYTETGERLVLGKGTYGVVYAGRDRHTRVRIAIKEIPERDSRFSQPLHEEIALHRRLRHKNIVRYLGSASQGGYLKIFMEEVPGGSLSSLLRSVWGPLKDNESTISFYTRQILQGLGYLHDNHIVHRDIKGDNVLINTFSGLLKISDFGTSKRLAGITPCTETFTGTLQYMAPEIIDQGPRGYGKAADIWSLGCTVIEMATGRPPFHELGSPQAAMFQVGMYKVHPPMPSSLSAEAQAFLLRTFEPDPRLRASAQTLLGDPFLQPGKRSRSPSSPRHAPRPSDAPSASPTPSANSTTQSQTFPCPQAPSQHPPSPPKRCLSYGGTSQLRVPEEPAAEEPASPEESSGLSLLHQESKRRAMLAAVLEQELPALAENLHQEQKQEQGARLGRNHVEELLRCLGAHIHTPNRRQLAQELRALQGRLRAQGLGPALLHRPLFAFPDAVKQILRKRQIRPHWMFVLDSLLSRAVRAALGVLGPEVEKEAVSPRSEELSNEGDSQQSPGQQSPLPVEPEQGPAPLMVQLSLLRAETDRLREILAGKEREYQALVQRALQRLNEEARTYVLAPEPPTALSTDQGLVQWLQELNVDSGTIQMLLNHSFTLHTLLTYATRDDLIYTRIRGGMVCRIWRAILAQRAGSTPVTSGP

[6] = 10 µM, read-out: % of control at 10 µM

Row | Compound | remaining activity at 1 µM [1] [%] | remaining activity at 10 µM [1, 6] [%] | remaining activity at 1 µM [2] [%] | remaining activity at 10 µM ([2]; 10 µM, read-out: PLK4 (% of control at 10 µM)) [%] | remaining activity at 1 µM [3] [%] | remaining activity at 10 µM [3, 6] [%] | remaining activity at 1 µM [4] [%] | remaining activity at 10 µM [4, 6] [%] | remaining activity at 1 µM [5] [%] | remaining activity at 10 µM [5, 6] [%]
1 | Nc1cc(C(F)(F)F)c(-c2cc(N3CCOCC3)nc(N3CCOCC3)n2)cn1 [Buparlisib] | 66 | 100 | 93 | 87 | 100 | 100 | 93 | 100 | 87 | 100
2 | Cn1c(=O)n(-c2ccc(C(C)(C)C#N)cc2)c2c3cc(-c4cnc5ccccc5c4)ccc3ncc21 [Dactolisib, 2-methyl-2-[4-(3-methyl-2-oxo-8-quinolin-3-yl-2,3-dihydroimidazo[4,5-c]quinolin-1-yl)-phenyl] propionitrile] | 26 |  | 94 |  | 98 |  | 100 |  | 90 | 
3 | COc1ncc(-c2ccc3nccc(-c4ccnnc4)c3c2)cc1NS(=O)(=O)c1ccc(F)cc1F [Omipalisib] | 90 |  | 61 |  | 100 |  | 95 |  | 91 | 
4 | FC(F)c1nc2ccccc2n1-c1nc(N2CCOCC2)nc(N2CCOCC2)n1 [ZSTK474, 2-(difluoromethyl)-1-[4,6-di(4-morpholinyl)-1,3,5-triazin-2-yl]-1H-benzimidazole] | 100 |  | 84 |  | 58 |  | 96 |  | 97 | 
